{
  "source": "patent US11708344B2",
  "about": "“Flavone derivatives for the treatment and prophylaxis of hepatitis B virus disease” (Hoffmann-La Roche Inc., priority 2018, dated 2023)",
  "data": [
    {"test_system": "HBeAg (surrogate marker for cccDNA) in HepDES19 cells", "assay": "Engineered HepDES19 primary screen assay (HBeAg ELISA)", "type": "cell-based, HBV", "details": "Hepatitis B virus, HepDES19, 120 h, read-out: IC50 (HBeAg level, HepDES19 primary screen assay), HepDES19 cells, 5 days compound incubation, HBeAg ELISA", "from_the_text": "(§1) The assay was employed to screen for novel cccDNA inhibitors. HepDES19 is a cccDNA-producing cell line. In this cell line, HBeAg in the cell culture supernatant as surrogate marker, as HBeAg production depends on cccDNA level and activity. HepDES19 is an engineered cell line which contains a 1.1 unit length HBV genome, and pgRNA transcription from the transgene is controlled by Tetracycline (Tet). In the absence of Tet, pgRNA transcription will be induced, but HBV e antigen (HBeAg) could not be produced from this pgRNA due to very short leader sequence before the HBeAg start codon and the start codon is disrupted. Only after cccDNA is formed, the missing leader sequence and start codon mutation would be restored from the 3′-terminal redundancy of pgRNA, and then HBeAg could be synthesized. Therefore, HBeAg could be used as a surrogate marker for cccDNA (Zhou, T. et al., Antiviral Res. (2006), 72(2), 116-124; Guo, H. et al., J. Virol. (2007), 81(22), 12472-12484).\n(§2) HepDES19 cells were seeded at 2×10^6 cells per T150 flask and cultured with the culture medium (Dulbecco's Modified Eagle Medium: Nutrient Mixture F-12 [DMEM-F12, Gibco Cat. 11320-82], 10% Fetal Bovine Serum [FBS, Clontech Cat. 631101], 0.1 mM Non-Essential Amino Acids Solution [NEAA, Gibco Cat. 11140-050], 50 μg/mL Penicillin-Streptomycin [PS, Invitrogen Cat. 15140-163], 500 μg/mL Geneticin [G418, Invitrogen Cat. 10131-027]) containing 3 μg/mL Tet (Sigma, Cat. 87128) for 5 days. Cells were then seeded at 4×10^6 cells per T150 in the same culture medium as described above in the absence of Tet for 8 days. Cells were then harvested and frozen at density of 2×10^6 cells per mL. For compound testing, the frozen cells were thawed and seeded into 96-well plates at a density of 6×10^4 cells per well. At 24 hours after seeding, half log serial dilutions of compounds made with Dimethyl sulfoxide (DMSO, Sigma, Cat. D2650) were further diluted with the same culture medium as described above before they were added to the cells to reach desired final compound concentrations and 1% DMSO concentration. Plates were then incubated at 37° C. for another 5 days before measurement of HBeAg level and cell viability. […] HBeAg level were measured with enzyme-linked immunosorbent assay (ELISA) kit (Shanghai Kehua Diagnostic Medical Products Co., Ltd). Cell viability was assessed using Cell Counting Kit-8 (DonJindo, Cat. CK04-20). IC50 values were derived from the dose-response curve using 4 parameter logistic curve fit method.\n(§3) The compounds of the present invention were tested for their capacity to inhibit extracellular HBeAg level as described herein.", "units": {"IC50": "µM"}, "values": [
      {"smiles": "COc1ccc2oc(-c3ccccc3OC)cc(=O)c2c1", "note": "[Example F-2, 6-methoxy-2-(2-methoxyphenyl)chromen-4-one, reference compound]", "IC50": "> 50"},
      {"smiles": "CC(C)c1ccc(-c2cc(=O)c3cccc(Cl)c3o2)c(O[C@H]2C[C@@H](C(=O)O)C2)c1", "note": "[Example B020-A, Cis-3-[2-(8-chloro-4-oxo-chromen-2-yl)-5-isopropyl-phenoxy]cyclobutanecarboxylic acid]", "IC50": 2.84},
      {"smiles": "O=c1cc(-c2ccc(C3CC3)cc2OCCO[C@H]2C[C@@H](C(=O)O)C2)oc2c(Cl)cccc12", "note": "[Example C069-A, Cis-3-[2-[2-(8-chloro-4-oxo-chromen-2-yl)-5-cyclopropyl-phenoxy]ethoxy]cyclobutanecarboxylic acid]", "IC50": 5.09},
      {"smiles": "COc1cc(OCCO[C@H]2C[C@H](C(=O)O)C2)c(-c2cc(=O)c3cccc(Cl)c3o2)cc1C", "note": "[Example C041-B, Trans-3-[2-[2-(8-chloro-4-oxo-chromen-2-yl)-5-methoxy-4-methyl-phenoxy]ethoxy]cyclobutanecarboxylic acid]", "IC50": 9.64},
      {"smiles": "O=c1cc(-c2ccccc2OCCO[C@H]2C[C@@H](C(=O)O)C2)oc2c(Cl)c(C3CC3)ccc12", "note": "[Example C058-A, Cis-3-[2-[2-(8-chloro-7-cyclopropyl-4-oxo-chromen-2-yl)phenoxy]ethoxy]cyclobutanecarboxylic acid]", "IC50": 5.1},
      {"smiles": "O=C(O)CCOc1cc(Br)c(OC(F)(F)F)cc1-c1cc(=O)c2cccc(Cl)c2o1", "note": "[Example A014, 3-[5-bromo-2-(8-chloro-4-oxo-chromen-2-yl)-4-(trifluoromethoxy)phenoxy]propanoic acid]", "IC50": 3.22},
      {"smiles": "Cc1cc(-c2cc(=O)c3cccc(Br)c3o2)c(OCCC(=O)O)cc1Cl", "note": "[Example A025, 3-[2-(8-bromo-4-oxo-chromen-2-yl)-5-chloro-4-methyl-phenoxy]propanoic acid]", "IC50": 3.55},
      {"smiles": "O=c1cc(-c2ccccc2O)oc2cc(O)ccc12", "note": "[Example F-1, 7-hydroxy-2-(2-hydroxyphenyl)chromen-4-one, reference compound]", "IC50": "> 50"},
      {"smiles": "COc1cc(OC2CC(C(=O)O)C2)c(-c2cc(=O)c3cccc(Cl)c3o2)cc1OC", "note": "(centres unmarked) [Example B006, 3-[2-(8-chloro-4-oxo-chromen-2-yl)-4,5-dimethoxy-phenoxy]cyclobutanecarboxylic acid]", "IC50": 5.48},
      {"smiles": "CSc1ccc(-c2cc(=O)c3cccc(Cl)c3o2)c(OCCO[C@H]2C[C@H](C(=O)O)C2)c1", "note": "[Example C064-B, trans-3-[2-[2-(8-chloro-4-oxo-chromen-2-yl)-5-methylsulfanyl-phenoxy]ethoxy]cyclobutanecarboxylic acid]", "IC50": 2.93},
      {"smiles": "Cc1cc(-c2cc(=O)c3cccc(Cl)c3o2)c(OCC2(CC(=O)O)CC2)cc1Br", "note": "[Example A068, 2-[1-[[5-bromo-2-(8-chloro-4-oxo-chromen-2-yl)-4-methyl-phenoxy]methyl]cyclopropyl]acetic acid]", "IC50": 5.7},
      {"smiles": "COC(=O)[C@H]1C[C@H](OCCOc2cc(S(C)(=O)=O)ccc2-c2cc(=O)c3cccc(Cl)c3o2)C1", "note": "[Example C065-B, Trans-methyl 3-[2-[2-(8-chloro-4-oxo-chromen-2-yl)-5-methylsulfonyl-phenoxy]ethoxy]cyclobutanecarboxylate]", "IC50": 12.2},
      {"smiles": "O=C(O)CCOc1cc(C(F)(F)F)ccc1-c1cc(=O)c2c(O)ccc(Cl)c2o1", "note": "[Example A045, 3-[2-(8-chloro-5-hydroxy-4-oxo-chromen-2-yl)-5-(trifluoromethyl)phenoxy]propanoic acid]", "IC50": 2.03},
      {"smiles": "O=C(O)[C@@H]1C[C@H](Oc2cc(OC(F)(F)F)ccc2-c2cc(=O)c3cccc(Cl)c3o2)CN1S(=O)(=O)c1ccccc1", "note": "[Example B085, (2S,4S)-1-(benzenesulfonyl)-4-[2-(8-chloro-4-oxo-chromen-2-yl)-5-(trifluoromethoxy)phenoxy]pyrrolidine-2-carboxylic acid]", "IC50": 4.57},
      {"smiles": "CCOc1ccc(-c2cc(=O)c3ccc(C(F)(F)F)c(Cl)c3o2)c(OCCOC2CC(C(=O)O)C2)c1", "note": "(centres unmarked) [Example C097, 3-[2-[2-[8-chloro-4-oxo-7-(trifluoromethyl)chromen-2-yl]-5-ethoxy-phenoxy]ethoxy]cyclobutanecarboxylic acid]", "IC50": 1.31},
      {"smiles": "O=c1cc(-c2ccc(-c3nccs3)cc2OCCO[C@H]2C[C@H](C(=O)O)C2)oc2c(Cl)cccc12", "note": "[Example C066-B, Trans-3-[2-[2-(8-chloro-4-oxo-chromen-2-yl)-5-thiazol-2-yl-phenoxy]ethoxy]cyclobutanecarboxylic acid]", "IC50": 1.02},
      {"smiles": "CCOc1ccc(-c2cc(=O)c3c(O)ccc(Cl)c3o2)c(O[C@H]2C[C@@H](C(=O)O)C2)c1", "note": "[Example B039-A, Cis-3-[2-(8-chloro-5-hydroxy-4-oxo-chromen-2-yl)-5-ethoxy-phenoxy]cyclobutanecarboxylic acid]", "IC50": 6.76},
      {"smiles": "CS(=O)(=O)NC(=O)[C@H]1C[C@H](OCCOc2cc(Br)ccc2-c2cc(=O)c3cccc(Cl)c3o2)C1", "note": "[Example C123, Trans-3-[2-[5-bromo-2-(8-chloro-4-oxo-chromen-2-yl)phenoxy]ethoxy]-N-methylsulfonyl-cyclobutanecarboxamide]", "IC50": 6.53},
      {"smiles": "COc1cc(O[C@H]2C[C@@H](C(=O)NS(C)(=O)=O)C2)c(-c2cc(=O)c3cccc(Cl)c3o2)cc1Br", "note": "[Example B055-A, Cis-3-[4-bromo-2-(8-chloro-4-oxo-chromen-2-yl)-5-methoxy-phenoxy]-N-methylsulfonyl-cyclobutanecarboxamide]", "IC50": 3.59},
      {"smiles": "O=c1cc(-c2ccc(-c3nccs3)cc2OCCO[C@H]2C[C@@H](C(=O)O)C2)oc2c(Cl)cccc12", "note": "[Example C066-A, Cis-3-[2-[2-(8-chloro-4-oxo-chromen-2-yl)-5-thiazol-2-yl-phenoxy]ethoxy]cyclobutanecarboxylic acid]", "IC50": 1.02},
      {"smiles": "COc1cc(O[C@H]2C[C@@H](C(=O)O)N(S(=O)(=O)c3ccccc3)C2)c(-c2cc(=O)c3cccc(Cl)c3o2)cc1OC", "note": "[Example B081]", "IC50": 3.11},
      {"smiles": "O=C(O)[C@H]1CC[C@@H](Oc2cc(Br)ccc2-c2cc(=O)c3cccc(Cl)c3o2)C1", "note": "(relative stereo) [Example B028-A, Cis-3-[5-bromo-2-(8-chloro-4-oxo-chromen-2-yl)phenoxy]cyclopentanecarboxylic acid]", "IC50": 0.471},
      {"smiles": "O=C(COCCOc1cc(Br)ccc1-c1cc(=O)c2cccc(Cl)c2o1)N1CCC(O)C1", "note": "(centres unmarked) [Example C126, 2-[4-bromo-2-[2-[2-(3-hydroxypyrrolidin-1-yl)-2-oxo-ethoxy]ethoxy]phenyl]-8-chloro-chromen-4-one]", "IC50": 4.4},
      {"smiles": "COc1cc(OCCO[C@H]2C[C@H](C(=O)O)C2)c(-c2cc(=O)c3cccc(Cl)c3o2)cc1Br", "note": "[Example C040-B, Trans-3-[2-[4-bromo-2-(8-chloro-4-oxo-chromen-2-yl)-5-methoxy-phenoxy]ethoxy]cyclobutanecarboxylic acid]", "IC50": 17.1},
      {"smiles": "CC(C)(OCCCOc1cc(C(F)(F)F)ccc1-c1cc(=O)c2cccc(Cl)c2o1)C(=O)O", "note": "[Example C109, 2-[3-[2-(8-chloro-4-oxo-chromen-2-yl)-5-(trifluoromethyl)phenoxy]propoxy]-2-methyl-propanoic acid]", "IC50": 0.995},
      {"smiles": "O=c1cc(-c2ccc(Br)cc2OCCO[C@H]2C[C@@H](C(=O)O)C2)oc2c(Cl)c(F)ccc12", "note": "[Example C030-A, Cis-3-[2-[5-bromo-2-(8-chloro-7-fluoro-4-oxo-chromen-2-yl)phenoxy]ethoxy]cyclobutanecarboxylic acid]", "IC50": 1.37},
      {"smiles": "O=C(O)CCCCCCOc1cc(C(F)(F)F)ccc1-c1cc(=O)c2cccc(Cl)c2o1", "note": "[Example A066, 7-[2-(8-chloro-4-oxo-chromen-2-yl)-5-(trifluoromethyl)phenoxy]heptanoic acid]", "IC50": 2.44},
      {"smiles": "O=c1cc(-c2ccc(C3CC3)cc2O[C@H]2C[C@H](C(=O)O)C2)oc2c(Cl)cccc12", "note": "[Example B035-B, trans-3-[2-(8-chloro-4-oxo-chromen-2-yl)-5-cyclopropyl-phenoxy]cyclobutanecarboxylic acid]", "IC50": 2.02}
    ]},
    {"test_system": "HBeAg (surrogate marker for cccDNA) in HepDES19 cells", "assay": "Engineered HepDES19 primary screen assay (HBeAg ELISA)", "type": "cell-based, HBV", "details": "read-out: IC50 (HBeAg level, HepDES19 primary screen assay); HepDES19 cells, 5 days compound incubation, HBeAg ELISA", "from_the_text": "as §1, §2, §3", "units": {"IC50": "µM"}, "values": [
      {"smiles": "O=C(O)C1CC(COc2cc(Br)ccc2-c2cc(=O)c3cccc(Cl)c3o2)C1", "note": "(stereo in doubt) [Example B025-A, Cis-3-[[5-bromo-2-(8-chloro-4-oxo-chromen-2-yl)phenoxy]methyl]cyclobutanecarboxylic acid]", "IC50": 4.92}
    ]}
  ]
}
